Laboratory results as given in patent EP0209274A2, “Furanone derivatives” (ELI LILLY AND COMPANY, priority 1985, dated 1987).

The compounds below were run against T1, 5-Lipoxygenase (Cavia porcellus, UniProt A0A286X958) (assay: 5-Lipoxygenase (5-LPO) Assay). Settings: inhibition of 5-HETE formation; supernatant of guinea pig PMNL sonicate; read-out: 5-LPO IC50 (µg/ml) (converted).
T1 construct: The PMNL suspension was disrupted by five ½-second pulse sonication; from tissue; host or cells: guinea pig peritoneal polymorphonuclear leukocytes (30,000 x g supernatant of the sonicate)
T1 sequence (A0A286X958 1-674): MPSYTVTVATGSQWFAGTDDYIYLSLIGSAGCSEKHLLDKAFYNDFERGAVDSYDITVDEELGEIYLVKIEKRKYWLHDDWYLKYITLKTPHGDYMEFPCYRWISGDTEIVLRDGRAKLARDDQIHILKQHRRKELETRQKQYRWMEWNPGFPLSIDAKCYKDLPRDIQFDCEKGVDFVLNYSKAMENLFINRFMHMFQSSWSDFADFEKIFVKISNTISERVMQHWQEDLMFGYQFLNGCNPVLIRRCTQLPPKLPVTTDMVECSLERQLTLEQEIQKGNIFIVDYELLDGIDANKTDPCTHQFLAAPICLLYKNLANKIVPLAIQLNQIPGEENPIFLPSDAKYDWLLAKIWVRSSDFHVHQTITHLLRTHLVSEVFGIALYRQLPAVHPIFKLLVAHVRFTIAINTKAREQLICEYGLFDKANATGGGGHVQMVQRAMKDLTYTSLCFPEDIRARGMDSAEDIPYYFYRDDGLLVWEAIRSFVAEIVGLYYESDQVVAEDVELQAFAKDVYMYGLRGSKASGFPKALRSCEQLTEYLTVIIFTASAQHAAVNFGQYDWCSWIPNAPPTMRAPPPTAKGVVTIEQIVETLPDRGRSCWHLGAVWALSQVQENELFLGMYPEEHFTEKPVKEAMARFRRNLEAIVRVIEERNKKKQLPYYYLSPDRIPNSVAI
Assay type: biochemical, guinea pigs
Method: Ten milliliters of a 2% casein solution were injected intraperitoneally to guinea pigs weighing 250-300 gm. After 16-18 hours, the guinea pigs were killed by suffocation in a carbon dioxide chamber. The peritoneal cavity was infused with 70 ml of saline and 40-50 ml of the fluid were recovered from the cavity. After centrifugation, cell pellets were washed twice in Hank's balanced salt solution (HBSS) without calcium ion.
The cells were then suspended in 5 ml of sodium phosphate buffer, pH 7.1 containing 1 mM EDTA, and 0.1% gelatin. About 20-30 x 10^7 cells were obtained from one guinea pig.
The PMNL suspension was disrupted by five ½-second pulse sonication at the setting of 3 in a Branson Sonifier, Model 350, equipped with a microtip. The sonicates were combined and centrifuged at 30,000 x g for 10 minutes. The supernatant was kept frozen at -70°C until use.
. Enzyme activity was determined by assaying for 5-HETE formatiun by first incubating 0.2 ml of the supernatant obtained from the PMNL sonicate with the test compound, 1 mM CaCl2, 2 mM ATP, and 1 mM GSH for 5 minutes at 37°C. The mixture is treated with 5 pM ^14C-arachidonic acid and incubated at 37°C an additional 10 minutes. The enzyme reaction was then stopped by the addition of 10 µl of 1M citric acid and 10 µl of an alcohol solution containing 20 mg/ml each of indomethacin and butylated hydroxyanisole (BHA). The reaction mixture was spotted (50 µl) on a silica gel plate (Baker TLC plate S1250-PA-19C) and subjected to TLC in a solvent system of ethyl acetate/2,2,4-tri- methylpentane/glacial acetic acid/H20 (90:50:20:100).
The radioactivity of the arachidonic acid and its metabolites (5-HETE and LTB4) was visualized from a developed x-ray film which had been exposed to the TLC plate 1-2 days. The amount of 5-HETE formed was quanti- tated by scraping the silica gel area corresponding to the spot on the x-ray film, and the radioactivity determined in a Isocap/300 liquid scintillation counter (Searle Analytic, Inc.).
The percent inhibition of the formation of 5-HETE was determined for each concentration of test compound tested as compared to a control experiment wherein no test compound was added. The concentration and percent inhibition values were plotted on semi log paper and the concentration in which formation of 5-HETE is inhibited by 50% (ICso) was determined by interpolation.

SMILES	IC50 [µM]
CCCCC/C=C\C/C=C\CCCCCCC1=CC(=O)OC1O (stereo not shown) [Example 1, (Z,Z)-4-(7,10-hexadecadienyl)-5-hydroxy-2-(5H)-furanone]	1.25 to 3.12
CC/C=C\C/C=C\C/C=C\CCCCCCC1=CC(=O)OC1O (stereo not shown) [Example 2, (Z,Z,Z)-4-(7,10,13-hexadecatrienyl)-5-hydroxy-2(5H)-furanone]	0.471 to 1.88
CCCCC/C=C\C/C=C\C/C=C\C/C=C\CCC1=CC(=O)OC1O (stereo not shown) [Example 3, (Z,Z,Z,Z)-5-hydroxy-4-(3,6,9,12-octa-decatetraenyl)-2(5H)-furanone]	0.435 to 1.16
CCCCCCCC/C=C/CCCCCCC1=CC(=O)OC1O (stereo not shown) [Example 4, (E)-4-(7-hexadecenyl)-5-hydroxy-2(5H)-furanone]	~3.1
CCCCC/C=C\C/C=C\C/C=C\CCCC1=CC(=O)OC1O (stereo not shown) [Example 5, (Z,Z,Z)-4-(4,7,10-hexadecatrienyl)-5-hydroxy-2(5H)-furanone]	1.57 to 4.71
CC/C=C\C/C=C\C/C=C\C/C=C\C/C=C\C/C=C\CC1=CC(=O)OC1O (stereo not shown) [Example 9, (Z,Z,Z,Z,Z,Z)-4-(2,5,8,11,14,17-eicosa-hexaenyl)-5-hydroxy-2(5H)-furanone]	2.17 to 16.3
CCCCCCCC/C=C\CCCCCCC1=CC(=O)OC1O (stereo not shown) [Example 11, (Z)-4-(7-hexadecenyl)-5-hydroxy-2(5H)-furanone]	1.24
O=C1C=C(CCCCOc2ccc3ccccc3c2)C(O)O1 (stereo not shown) [Example 12, 5-Hydroxy-4-[4-(2-naphthalenyloxy)butyl]-2(5H)-furanone]	16.8 to 40.2
CC(C)=CCCC(C)=CCCC(C)=CCCC1=CC(=O)OC1O (stereo not shown) [Example 13, 5-Hydroxy-4-(4,8,12-trimethyl-3,7,11-tri-decatrienyl)-2(5H)-furanone]	25.1
CC(C)=CCC/C(C)=C/CCC1=CC(=O)OC1O (stereo not shown) [Example 14, (E,E)-4-(4,8-dimethyl-3,7-nonadienyl)-5-hydroxy-2(5H)-furanone]	24
CC(C)=CCCC(C)=CCCC(C=O)=CCCC1=CC(=O)OC1O (stereo not shown) [Example 15, 2-[3-(2,5-dihydro-2-hydroxy-5-oxo-3-furanyl)-propylidene]-6,10-dimethyl-5,9-undecadienal]	0.241
O=C1C=C(CCCCCOc2ccccc2Cc2ccccc2)C(O)O1 (stereo not shown) [Example 18, 5-Hydroxy-4-[5-(2-benzylphenoxy)pentyl]-2(5H)-furanone]	28.4
CC(C)=CCCC(C)=CCCC(=CCCC1=CC(=O)OC1O)CO (stereo not shown) [Example 19, 5-Hydroxy-4-[4-(hydroxymethyl)-8,12-dimethyl-3,7,11-tridecatrienyl]-2(5H)-furanone]	4.48
